In patent US12171756B2, “NLRP3 modulators” (Innate Tumor Immunity, Inc., priority 2017, dated 2024):
Where a name gives a salt, the structure may show the parent alone.

Experiments:
human TLR8 = target: T1, human TLR8 (Homo sapiens, UniProt Q9NR97); assay: In vitro human TLR8 binding reporter assay (HEK-Blue, NF-kB/AP1-inducible SEAP); format: cell-based; conditions: HEK-Blue human TLR8 SEAP reporter cells; activity range classes; read-out: TLR8 Agonist EC50
T1 construct: host or cells: human HEK-Blue cells (HEK293-derived) co-expressing TLR8 and an NF-kB/AP1-inducible SEAP reporter
T1 sequence (Q9NR97 27-1041): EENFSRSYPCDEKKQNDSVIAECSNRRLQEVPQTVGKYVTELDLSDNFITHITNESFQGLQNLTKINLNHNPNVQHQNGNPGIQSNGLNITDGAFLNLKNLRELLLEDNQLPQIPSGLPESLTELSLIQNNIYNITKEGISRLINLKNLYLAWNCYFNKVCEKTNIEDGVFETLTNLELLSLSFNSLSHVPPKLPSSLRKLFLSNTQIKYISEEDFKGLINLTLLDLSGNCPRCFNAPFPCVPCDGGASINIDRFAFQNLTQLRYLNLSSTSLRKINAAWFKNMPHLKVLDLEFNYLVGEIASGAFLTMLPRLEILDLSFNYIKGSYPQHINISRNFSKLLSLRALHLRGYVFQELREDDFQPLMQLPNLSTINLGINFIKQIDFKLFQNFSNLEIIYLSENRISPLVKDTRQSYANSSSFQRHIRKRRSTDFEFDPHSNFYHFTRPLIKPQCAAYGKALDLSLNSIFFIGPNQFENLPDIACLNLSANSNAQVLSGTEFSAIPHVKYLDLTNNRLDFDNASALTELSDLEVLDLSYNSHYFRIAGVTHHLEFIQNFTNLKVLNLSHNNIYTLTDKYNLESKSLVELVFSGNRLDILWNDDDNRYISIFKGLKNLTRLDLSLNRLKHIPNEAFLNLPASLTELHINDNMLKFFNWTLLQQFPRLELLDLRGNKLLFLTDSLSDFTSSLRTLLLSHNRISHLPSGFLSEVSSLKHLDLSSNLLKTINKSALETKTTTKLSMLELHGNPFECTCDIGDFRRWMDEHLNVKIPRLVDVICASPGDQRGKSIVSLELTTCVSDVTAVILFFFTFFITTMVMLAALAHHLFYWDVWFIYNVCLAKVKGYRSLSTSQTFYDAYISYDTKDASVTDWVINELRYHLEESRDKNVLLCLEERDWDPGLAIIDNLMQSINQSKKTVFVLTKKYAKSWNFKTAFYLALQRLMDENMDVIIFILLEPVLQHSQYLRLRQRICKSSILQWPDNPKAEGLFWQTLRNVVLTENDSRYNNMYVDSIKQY
Method: (§1) In Vitro Human TLR7 and TLR8 Binding Reporter Assays
(§2) Logarithmically-growing human HEK-Blue cells co-expressing a TLR7 or TLR8 gene and a NF-kB/AP1-inducible SEAP (secreted embryonic alkaline phosphatase; Invivogen, San Diego, CA) reporter gene are added to individual wells of a 384-well plate (15,000 cells per 20 μL per well) and maintained for 24 h at 37° C., 5% CO2. Test compounds or DMSO are distributed to separate wells the next day using acoustic liquid handling technology (100 nL per well) and cells are subsequently incubated for 18 h at 37° C., 5% CO2. Cellular SEAP production is measured using an Envision plate reader instrument thirty minutes after adding freshly-made Quanti-Blue reagent (prepared by following manufacturer instructions; Invivogen, San Diego, CA) to the HEK-Blue TLR Nf-kB-SEAP cell reactions. All EC50 values (half-maximal effective concentration) are determined using proprietary data analysis software. Normalized EC50 value=absolute value determined by setting 100% Ymax using a reference standard RLU (relative light unit) values from cells treated with 50 μM of the reference standard.

[1] = system: IL-1β production in PMA-differentiated THP-1 cells; assay: Measurement of IL-1β production in PMA-differentiated THP-1 cells (ELISA, 4 hours); format: cell-based, human; conditions: Homo sapiens, THP-1, human IL-1β production, assayed using one or more of the described procedures, read-out: NLRP3 hIL1B IC50
Method: Measurement of IL-1β Production in PMA-Differentiated THP-1 Cells THP-1 cells were purchased from the American Type Culture Collection and sub-cultured according to instructions from the supplier. Prior to experiments, cells were cultured in RPMI 1640 containing 10% heat inactivated FBS, penicillin (100 units/ml) and streptomycin (100 μg/ml), and maintained in log phase prior to experimental setup. Prior to the experiment THP-1 were treated with PMA (Phorbol 12-myristate 13-acetate) (10 μg/ml) for 24 hours. The day of the experiment the media was removed and attaching cells were treated with trypsin for 2 minutes, cells were then collected, washed with PBS (phosphate buffer saline), spin down, resuspended in 2% heat inactivated FBS with RPMI at a concentration of 1×10^6 cells/ml, and 100 μl was plated in a 96 well plate. Compounds were dissolved in dimethyl sulfoxide (DMSO) and added to the culture medium to achieve desired concentration (e.g. 100, 30, 10, 3, 1, 0.3 or 0.1 μM). Cells were incubated with compounds for 4 hours. Cell free supernatant was collected and the production of IL-1β was evaluated by ELISA. A vehicle only control was run concurrently with each experiment. Final DMSO concentration was 1%.

human TLR7 = target: T2, human TLR7 (Homo sapiens, UniProt Q9NYK1); assay: In vitro human TLR7 binding reporter assay (HEK-Blue, NF-kB/AP1-inducible SEAP); format: cell-based; conditions: HEK-Blue human TLR7 SEAP reporter cells; activity range classes; read-out: TLR7 Agonist EC50
T2 construct: host or cells: human HEK-Blue cells (HEK293-derived) co-expressing TLR7 and an NF-kB/AP1-inducible SEAP reporter
T2 sequence (Q9NYK1 27-1049): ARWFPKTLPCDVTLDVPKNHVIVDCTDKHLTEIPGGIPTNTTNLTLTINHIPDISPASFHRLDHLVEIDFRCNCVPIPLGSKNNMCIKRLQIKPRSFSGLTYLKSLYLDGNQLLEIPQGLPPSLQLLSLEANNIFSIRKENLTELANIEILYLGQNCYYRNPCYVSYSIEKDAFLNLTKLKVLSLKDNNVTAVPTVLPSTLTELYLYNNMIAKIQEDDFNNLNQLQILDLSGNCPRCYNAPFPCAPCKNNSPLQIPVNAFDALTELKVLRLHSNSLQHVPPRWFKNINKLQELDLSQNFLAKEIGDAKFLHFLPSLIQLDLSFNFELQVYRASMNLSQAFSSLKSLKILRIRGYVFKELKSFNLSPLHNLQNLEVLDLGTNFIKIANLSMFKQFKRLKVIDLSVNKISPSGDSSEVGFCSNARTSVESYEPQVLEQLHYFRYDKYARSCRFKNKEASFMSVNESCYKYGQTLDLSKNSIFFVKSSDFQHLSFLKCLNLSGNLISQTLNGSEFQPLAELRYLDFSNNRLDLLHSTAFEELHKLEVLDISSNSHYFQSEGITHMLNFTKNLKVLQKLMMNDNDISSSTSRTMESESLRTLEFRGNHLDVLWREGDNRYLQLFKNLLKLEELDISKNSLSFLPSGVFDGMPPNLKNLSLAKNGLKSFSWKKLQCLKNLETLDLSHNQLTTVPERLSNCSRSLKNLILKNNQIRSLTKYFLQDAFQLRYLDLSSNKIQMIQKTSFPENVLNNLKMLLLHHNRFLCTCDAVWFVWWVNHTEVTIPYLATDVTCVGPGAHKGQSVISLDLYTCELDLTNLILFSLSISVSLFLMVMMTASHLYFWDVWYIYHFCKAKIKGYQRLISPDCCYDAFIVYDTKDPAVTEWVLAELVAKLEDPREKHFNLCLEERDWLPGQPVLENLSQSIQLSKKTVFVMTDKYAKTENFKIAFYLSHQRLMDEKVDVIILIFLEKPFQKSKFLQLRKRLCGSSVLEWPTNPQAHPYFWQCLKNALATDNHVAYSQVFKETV
Method: as §1, §2

SMILES	EC50 (human TLR8)	IC50 [1]	EC50 (human TLR7)
Nc1cc(NCCC2CCOCC2)c2ccc(-c3cc[nH]n3)cc2n1 [Compound 344, 7-(1H-pyrazol-3-yl)-N4-(2-(tetrahydro-2H-pyran-4-yl)ethyl)quinoline-2,4-diamine]	> 100 µM	1.11 µM	> 100 µM
Nc1cc(OCc2ccn[nH]2)c2ccc(-c3ccn[nH]3)cc2n1 [Compound 313, 4-((1H-pyrazol-5-yl)methoxy)-7-(1H-pyrazol-5-yl)quinolin-2-amine]	> 100 µM	0.11 µM	> 100 µM
Nc1cc(NCc2nc[nH]n2)c2ccc(-c3ccn[nH]3)cc2n1 [Compound 227]	> 100 µM	0.33 µM	> 100 µM
Nc1cc(NCC(F)(F)c2ccccn2)c2ccc(-c3ccn[nH]3)cc2n1 [Compound 161]	> 100 µM	0.15 µM	> 100 µM
Nc1cc(NCc2ncc[nH]2)c2ccc(-c3ccn[nH]3)cc2n1 [Compound 240]	> 100 µM	0.24 µM	> 100 µM
CNC(=O)CCNc1cc(N)nc2cc(-c3ccn[nH]3)ccc12 [Compound 139]	> 100 µM	2.01 µM	> 100 µM
Nc1cc(NCC2CNC2)c2ccc(-c3ccn[nH]3)cc2n1 [Compound 325]	> 100 µM	23.2 µM	> 100 µM
CN(C)c1cc(N)nc2cc(-c3ccn[nH]3)ccc12 [Compound 166]	> 100 µM	0.56 µM	> 100 µM
Nc1cc(NCCn2cccn2)c2ccc(-n3cccn3)cc2n1 [Compound 302]	> 100 µM	0.05 µM	> 100 µM
Nc1cc(O[C@H]2CCNC2=O)c2ccc(-c3ccn[nH]3)cc2n1 [Compound 199]	> 100 µM	13.3 µM	> 100 µM
Nc1cc(N[C@H]2C[C@H](O)C2)c2ccc(-c3ccn[nH]3)cc2n1 [Compound 233]	> 100 µM	0.09 µM	> 100 µM
CS(=O)(=O)CCNc1cc(N)nc2cc(-c3ccn[nH]3)ccc12 [Compound 140]	> 100 µM	1.41 µM	> 100 µM
CC(=O)NCCOc1cc(N)nc2cc(-n3cccn3)ccc12 [Compound 177, N-(2-((2-amino-7-(1H-pyrazol-1-yl)quinolin-4-yl)oxy)ethyl)acetamide]	> 100 µM	3.07 µM	> 100 µM
Nc1nc2cc(-c3ccn[nH]3)ccc2cc1C1CCOCC1 [Compound 116]	> 100 µM	4.07 µM	> 100 µM
Nc1cc(NCc2cn[nH]c2)c2ccc(-c3ccn[nH]3)cc2n1 [Compound 228]	> 100 µM	0.16 µM	> 100 µM
Nc1cc(N[C@H]2CC[C@H](O)C2)c2ccc(-c3ccn[nH]3)cc2n1 [Compound 246]	> 100 µM	0.17 µM	> 100 µM
Nc1cc(-c2ccn[nH]2)c2ccc(-c3ccn[nH]3)cc2n1 [Compound 339, 4,7-di(1H-pyrazol-5-yl)quinolin-2-amine, HCl]	> 100 µM	0.48 µM	> 100 µM
Nc1cc(NCc2cccnn2)c2ccc(-c3ccn[nH]3)cc2n1 [Compound 149]	> 100 µM	0.14 µM	> 100 µM
Nc1cc(NCC2(CO)COC2)c2ccc(-c3ccsc3)cc2n1 [Compound 338, (3-(((2-amino-7-(thiophen-3-yl)quinolin-4-yl)amino)methyl)oxetan-3-yl)methanol]	> 100 µM	3.41 µM	> 100 µM
Nc1cc(-c2cn[nH]c2)c2ccc(-c3ccn[nH]3)cc2n1 [Compound 347, 4-(1H-pyrazol-4-yl)-7-(1H-pyrazol-5-yl)quinolin-2-amine]	> 100 µM	1.18 µM	> 100 µM
Nc1cc(N2CCc3ncccc3C2)c2ccc(-c3ccn[nH]3)cc2n1 [Compound 164]	> 100 µM	1.91 µM	> 100 µM
Nc1cc(OCC2(CO)COC2)c2ccc(-c3ccn[nH]3)cc2n1 [Compound 333]	> 100 µM	1.31 µM	> 100 µM
Cc1nc[nH]c1CNc1cc(N)nc2cc(-c3ccn[nH]3)ccc12 [Compound 237]	> 100 µM	2.57 µM	> 100 µM
Nc1cc(NCc2c[nH]nn2)c2ccc(-c3ccn[nH]3)cc2n1 [Compound 226]	> 100 µM	0.73 µM	> 100 µM
COc1cccc(C(C)Nc2cc(N)nc3cc(-c4ccn[nH]4)ccc23)n1 (stereo not drawn) [Compound 129, N4-(1-(6-methoxypyridin-2-yl)ethyl)-7-(1H-pyrazol-5-yl)quinoline-2,4-diamine]	> 100 µM	2.29 µM	> 100 µM
Nc1cc(-n2ccnc2)c2ccc(-c3ccn[nH]3)cc2n1 [Compound 167, 4-(1H-imidazol-1-yl)-7-(1H-pyrazol-5-yl)quinolin-2-amine]	> 100 µM	8.33 µM	> 100 µM
Nc1cc(NCC2COCCO2)c2ccc(-c3ccn[nH]3)cc2n1 (stereo not drawn) [Compound 266]	> 100 µM	0.39 µM	> 100 µM
